Measurements: ChEMBL document CHEMBL4706646, “Synthesis and evaluation of a collection of purine-like C-nucleosides as antikinetoplastid agents” (Eur J Med Chem, 2021)

What was measured:
Leishmania infantum = assay: Antileishmanial activity against Leishmania infantum infected in mouse primary macrophages; assay type: functional, organism-based; settings: Primary macrophage
Trypanosoma cruzi = assay: Antitrypanosomal activity against Trypanosoma cruzi infected in human MRC-5 SV2 cells; assay type: functional, organism-based
[1] = Cytotoxicity against human MRC-5 SV2 cells assessed as reduction in cell viability; assay type: cell-based
[2] = test system: Trypanosoma brucei rhodesiense; assay: Antitrypanosomal activity against Trypanosoma brucei rhodesiense; assay type: functional, organism-based
[3] = Cytotoxicity against mouse primary macrophages assessed as reduction in cell viability; assay type: cell-based, Macrophage
[4] = test system: Trypanosoma brucei brucei; assay: Antitrypanosomal activity against Trypanosoma brucei brucei; assay type: functional, organism-based

IC50 (Leishmania infantum) [µM]	IC50 [2] [µM]	IC50 [4] [µM]	Structure (SMILES)	IC50 (Trypanosoma cruzi) [µM]	CC50 [1] [µM]	CC50 [3] [µM]
≥ 40.3	5.98	6.78	Nc1ncnn2c([C@@H]3O[C@H](CO)[C@@H](O)[C@H]3O)cc(-c3ccc(Cl)c(F)c3)c12	2.45	≥ 40.3	> 64
236	3.71	3.89	Nc1ncnn2c([C@@H]3O[C@H](CO)[C@@H](O)[C@H]3O)cc(-c3ccc(Cl)cc3)c12	0.54	10.8	5
			O=C(Cn1ccnc1[N+](=O)[O-])NCc1ccccc1 [BENZNIDAZOLE]	2.02		
21.9	33.8	24.8	Nc1ncnc2c([C@@H]3O[C@H](CO)[C@@H](O)[C@H]3O)cnn12	3.81	9.32	> 64
3.17	3.01	0.5	O=c1[nH]cnn2c([C@@H]3O[C@H](CO)[C@@H](O)[C@H]3O)cnc12	0.6	> 64	> 64
5.15	2	< 0.25	Nc1ncnn2c([C@@H]3O[C@H](CO)[C@@H](O)[C@H]3O)cnc12	0.62	1.41	32
> 64	0.58	8.91	N#C[C@@]1(c2ccc3c(N)ncnn23)O[C@H](CO)[C@@H](O)[C@H]1O [GS-441524]	> 64	> 64	> 64
23.3	1.65	3.53	Nc1ncnn2c([C@@H]3O[C@H](CO)C[C@H]3O)cc(-c3ccc(Cl)cc3)c12	0.23	≥ 22.3	24
1.13	0.14	1.69	Nc1ncnn2c([C@@H]3O[C@H](CO)[C@@H](O)[C@H]3O)cc(Br)c12	0.78	≥ 11.8	2
	0.04		Cc1ccc(C(=O)Nc2ccc(S(=O)(=O)O)c3cc(S(=O)(=O)O)cc(S(=O)(=O)O)c23)cc1NC(=O)c1cccc(NC(=O)Nc2cccc(C(=O)Nc3cc(C(=O)Nc4ccc(S(=O)(=O)O)c5cc(S(=O)(=O)O)cc(S(=O)(=O)O)c45)ccc3C)c2)c1 [SURAMIN]			
5.66	7.06	3.53	O=c1[nH]cnn2c([C@@H]3O[C@H](CO)[C@@H](O)[C@H]3O)ccc12	7.67	49.4	> 64
≥ 50.8	28.9	41.8	Nc1ncnc2c([C@@H]3O[C@H](CO)[C@@H](O)[C@H]3O)cn(-c3ccc(Br)cc3)c12	0.46	> 64	> 64
> 64	29	40.3	Nc1ncnc2c([C@@H]3O[C@H](CO)[C@@H](O)[C@H]3O)cn(-c3ccc(Cl)c(F)c3)c12	1.04	> 64	> 64
7.47			CCCCCCCCCCCCCCCCOP(=O)([O-])OCC[N+](C)(C)C [MILTEFOSINE]			
< 0.25	< 0.25	< 0.25	Nc1ncnn2c([C@@H]3O[C@H](CO)[C@@H](O)[C@H]3O)ccc12	< 0.25	< 0.25	< 0.25
> 64	26.2	26.9	Nc1ncnc2c([C@@H]3O[C@H](CO)[C@@H](O)[C@H]3O)cn(-c3ccc(Cl)cc3)c12	0.34	> 64	> 64
32.5	1.58	13	N#C[C@@]1(c2cc(Br)c3c(N)ncnn23)O[C@H](CO)[C@@H](O)[C@H]1O	39.3	11	32
> 64	0.81	> 64	Nc1nccn2c([C@@H]3O[C@H](CO)[C@@H](O)[C@H]3O)cnc12	> 64	> 64	> 64
> 64	20	30.9	O=c1[nH]cnn2c([C@@H]3O[C@H](CO)[C@@H](O)[C@H]3O)cc(Br)c12	> 64	> 64	> 64
> 64	33.8	> 64	O=c1[nH]cnn2c([C@@H]3O[C@H](CO)C[C@H]3O)ccc12	> 64	> 64	> 64
> 64	1.77	10.3	N#C[C@]1(c2ccc3c(N)ncnn23)O[C@H](CO)[C@@H](O)[C@H]1O	> 64	> 64	> 64
> 64	55.7	> 64	Nc1nccn2c([C@@H]3O[C@H](CO)C[C@H]3O)cnc12	> 64	> 64	> 64
34.2	36.7	17.2	OC[C@H]1O[C@@H](c2cnn3c(O)ncnc23)[C@H](O)[C@@H]1O	10.1	> 64	> 64
